Publication PMC5770958, “Dual Action of Mexiletine and Its Pyrroline Derivatives as Skeletal Muscle Sodium Channel Blockers and Anti-oxidant Compounds: Toward Novel Therapeutic Potential” (Frontiers in Pharmacology, 2018)
Values joined by “and” are separate entries in the source; they are usually repeats but may differ in a detail not shown here. Identical values can stand only once. “Also recorded” adds a separate entry of the source. Like-named read-outs stand apart in the source and are kept apart here.

Assays:
[1] = test system: skeletal-muscle sodium channels (NaV1.4); experiment: Voltage-clamp recordings of INa in single muscle fibers: tonic block and use-dependent block; format: cell-based, Rana Esculenta; details: for IC50: HP -100 mV to -20 mV; for BT/BUD (IC50 TB/IC50 UDB 10-Hz): ratio tonic to 10-Hz use-dependent block
[2] = test system: skeletal-muscle sodium channels (NaV1.4); experiment: Voltage-dependent block of INa at HP -140 and -70 mV (resting and inactivated state affinity); format: cell-based, Rana Esculenta; details: for IC50: 0.3-Hz; for Ki: computed from Kr, K-70 and h∞ curve, read-out: Inactivated state block, calculated Ki
Excerpt: The cut-end fiber was then bathed in an internal solution and mounted across three chamber partitions, which delineated four pools. Three strips of vaseline were applied over the fiber and carefully sealed to the fiber to reduce leakage. […] Four KCl/agar bridges electrodes connected the recording chamber to the voltage-clamp amplifier based on methods described by Hille and Campbell ([1976]). For recording sodium currents (INa), the solution in the pool A was replaced with the external solution and after about 10 min of equilibration the recordings were performed at 10°C. […] Particular care was taken to verify that no change occurred in the membrane area in pool A throughout the experiments. Sodium currents were recorded using an amplifier connected via a A/D and D/A Digidata 1,200 Interface (Axon) to a 486 DX2/66 personal computer and stored on the hard disk. The stimulation protocols and data acquisition were controlled by Clampex software (pClamp6; Axon Instruments, Foster City, CA, USA) (Mele et al., [2014]). The currents flowing in response to depolarizing command voltages were low pass filtered at 10 kHz (Frequency Devices, Haverhill, MA, USA), visualized on an oscilloscope and sampled at 20 kHz. When necessary, leak and capacities currents were subtracted by P/4 method. The acquired traces were analyzed offline using Clampfit software (pClamp6; Axon Instruments). […] The degree of use-dependent block was computed as the value of the steady-state INa, max at this point normalized to the current at the same point in the absence of drug. This parameter reflects the potency of the drug for blocking the channels under conditions of high-frequency stimulation (i.e., as occurs during myotonic action potential firing) (De Luca et al., [2003a],[b]). […] The concentration-dependence of the drug effect was calculated as the half-maximal blocking concentration (IC50) at −140 mV, which allowed calculation of the affinity constant for the resting state (Kr). […] The affinity constant of the drug for the inactivated channel (Ki) was the computed as described below. Steady-state inactivation (h∞) curves were determined by a cyclic protocol of pulse sequences. […] Muraglia et al., [2014]). All data were expressed as mean ± S.E.M. The IC50 values, in the various experimental conditions, were determined by using a non-linear least squares fit of the concentration-response curves to the following logistic equation: […] K is IC50; n is the logistic slope factor, and [drug] is the molar concentration of the compound (Talon et al., [2001]). […] Statistical significance of differences between pairs of mean values has been estimated by unpaired Student's t-test and considered significant for p < 0.05. Two-way ANOVA and Bonferroni post-hoc corrections have been used for multiple comparison of experimental data means. The statistical significance between IC50 values obtained from the fit was evaluated using a number of degrees of freedom equal to the total number of preparations determining each point of the curve minus the number of means determining the curve minus two for the free parameters. The measurements of ionization constants and lipophilicity were performed on a Sirius GLpKa analyzer for pH-metric pKa and LogP (Sirius Analytical Instruments Ltd-Forest Row-UK). Correlation analysis was evaluated by fitting the experimental data point to linear regression analysis. Nonlinear equation fitting and processing for data graphics were done by FigP Software (Biosoft, Cambridge, UK).

[3] = test system: skeletal-muscle sodium channels (NaV1.4); experiment: Steady-state inactivation (h∞) curves of sodium channels; format: cell-based, Rana Esculenta; details: for Shift in the h∞ curves toward more negative potentials: 10 μM; for Vh1/2: 10 μM drug
Method: Steady-state inactivation (h∞) curves were determined by a cyclic protocol of pulse sequences.
(§1) The h∞ curves have been fitted with a single Boltzmann, and the potential at which 50% of the sodium channels were inactivated (Vh1/2) was calculated at the inflection point of the curves. Statistical significance of differences between pairs of mean values has been estimated by unpaired Student's t-test and considered significant for p < 0.05. Two-way ANOVA and Bonferroni post-hoc corrections have been used for multiple comparison of experimental data means. The statistical significance between IC50 values obtained from the fit was evaluated using a number of degrees of freedom equal to the total number of preparations determining each point of the curve minus the number of means determining the curve minus two for the free parameters. The measurements of ionization constants and lipophilicity were performed on a Sirius GLpKa analyzer for pH-metric pKa and LogP (Sirius Analytical Instruments Ltd-Forest Row-UK). Correlation analysis was evaluated by fitting the experimental data point to linear regression analysis. Nonlinear equation fitting and processing for data graphics were done by FigP Software (Biosoft, Cambridge, UK).
Fig. S2: Steady-state inactivation (h∞) curves were determined by a cyclic protocol of pulse […]
duration, and a test pulse to -20 mV for 10ms; after a pause of 3 s, the sequence was repeated 18-20 times with the prepulse potential value increased each time in 5 mV steps. A more quantitative estimate of the absolute affinity constant for the inactivated state (Ki) was obtained from the voltage dependent distribution of the channels in the resting (h) and inactivated state (1-h) obtained from […]

[4] = test system: skeletal-muscle sodium channels (NaV1.4); experiment: Recovery from inactivation of drug-bound sodium channels; open channel block check; format: cell-based, Rana Esculenta; details: 3 and 10 μM
[5] = Ionization constants and lipophilicity (Sirius GLpKa analyzer); format: physicochemical; details: for pKa: amine group of the drugs; for logD: pH 7.4, calculated from LogP and pKa values, read-out: Log D7.4
Method: as §1

C2C12 cells [6] = experiment: Cyto-protective effect against H2O2-induced oxidative stress (CCK-8); format: cell-based, Murine; details: for Cyto-protective effect: C2C12, 300 μM H2O2, drug 0.1-30 μM, 2 h before H2O2 plus 6 h
Method: (§2) Murine C2C12 skeletal muscle cells were cultured in DMEM supplemented with 10% fetal bovine serum, 1% penicillin, 1% streptomycin and 1% glutamine and were maintained at 37°C in 5% CO2/95% air. Cells obtained by sub-confluent cultures (about 70%) were seeded in 96 multiwell plate at a density of approximately 4.5 × 10^3 cells per well. Eighteen hours after seeding, either the cytotoxic effect of H2O2, mexiletine, Me5, their tetramethyl-pyrroline derivatives, and PP2 or the potential protective effect of all above mentioned compounds and N-acetyl cysteine (NAC) against the H2O2-induced oxidative stress has been investigated. […] To evaluate the cyto-protective effect of the drugs, C2C12 cells were incubated with the test compounds 2 h before the application of H2O2 at 300 μM and 1 mM, and then maintained for additional 6h. Two hours before absorbance lecture, 10 μl of Cell Counting Kit-8 pure solution (CCK-8 Alexis Biochemicals) was added into each well. The CCK-8 solution contains the monosodium salt of [2-(2-methoxy-4-nitrophenyl)-3-(4-nitrophenyl)-5-(2,4-disulfophenyl)-2H-tetrazolium (WST-8), which is reduced by cellular dehydrogenases to give a yellow colored product (formazan) absorbing at 450 nm. The quantity of formazan dye is directly proportional to the number of viable cells. Absorbance was measured at 450 nm with a microplate spectrophotometer (Victor V31420-40, PerkinElmer). This assay was successfully used to investigate on the mechanism of ion channel-regulated cell proliferation in cell lines (Tricarico et al., [2013]).
Fresh stock solutions of the test compounds were made daily and diluted in DMEM as required. Only for the tetramethyl-pyrroline derivatives and PP2, stock solutions in DMSO were prepared and then diluted in DMEM. The maximal concentration of DMSO in the diluted solutions was <0.2%. As expected, 0.2% DMSO had no effect on cell survival (data not shown). Accordingly, cell viability in the presence of drugs was expressed as percent change with respect to the cell treated with vehicle alone, after proper subtraction of blank absorbance.

C2C12 cells [7] = experiment: Cell culture cytotoxicity assay (CCK-8), 8 h incubation; format: cell-based, Murine
Method: as §2, with “The CCK-8 solution contains the monosodium salt of [2-(2-methoxy-4-nitrophenyl)-3-(4-nitrophenyl)-5-(2,4-disulfophenyl)-2H-tetrazolium (WST-8), which is reduced by cellular dehydrogenases to give a yellow colored product (formazan) absorbing at 450 nm.” left out, “This assay was successfully used to investigate on the mechanism of ion channel-regulated cell proliferation in cell lines (Tricarico et al., [2013]).” left out
(§3) Fresh stock solutions of the test compounds were made daily and diluted in DMEM as required. […] Accordingly, cell viability in the presence of drugs was expressed as percent change with respect to the cell treated with vehicle alone, after proper subtraction of blank absorbance.
(§4) All data were expressed as mean ± S.E.M. The IC50 values, in the various experimental conditions, were determined by using a non-linear least squares fit of the concentration-response curves to the following logistic equation: Effect = −100/{1+(K/[drug])n}, where Effect is the percentage change of INa; −100 is the maximal percentage block of INa; K is IC50; n is the logistic slope factor, and [drug] is the molar concentration of the compound (Talon et al., [2001]). […] The h∞ curves have been fitted with a single Boltzmann, and the potential at which 50% of the sodium channels were inactivated (Vh1/2) was calculated at the inflection point of the curves. […]

[8] = as above; format: cell-based, Murine; details: mouse, C2C12 skeletal muscle cells, 8 h of incubation, read-out: Cytotoxic effect IC50
Method: as §2, with “The CCK-8 solution contains the monosodium salt of [2-(2-methoxy-4-nitrophenyl)-3-(4-nitrophenyl)-5-(2,4-disulfophenyl)-2H-tetrazolium (WST-8), which is reduced by cellular dehydrogenases to give a yellow colored product (formazan) absorbing at 450 nm.” left out, “This assay was successfully used to investigate on the mechanism of ion channel-regulated cell proliferation in cell lines (Tricarico et al., [2013]).” left out
as §3, §4

[9] = 0.3-Hz, 10°C, read-out: Tonic block IC50
[10] = 10-Hz trains, read-out: Use-dependent block 10-Hz IC50
[11] = HP -70 mV, read-out: Voltage-dependent block HP-70 mV IC50, K-70
[12] = HP -140 mV, resting state, read-out: Voltage-dependent block HP-140 mV IC50, Kr

| SMILES | IC50 [1, 9] [µM] | IC50 [1, 10] [µM] | IC50 [2, 11] [µM] | IC50 [2, 12] [µM] | Ki [2] [µM] | logP [5] | pKa [5] | logD [5] | Cyto-protective effect (C2C12 cells [6]) | also measured |
| --- | --- | --- | --- | --- | --- | --- | --- | --- | --- | --- |
| Cc1cccc(C)c1OCC(NC(=O)C1=CC(C)(C)NC1(C)C)C(C)C (stereo not drawn) [CI16, N-{1-[(2,6-dimethylphenoxy)methyl]-2-methylpropyl}-2,2,5,5-tetramethyl-2,5-dihydro-1H-pyrrole-3-carboxamide] | 12.6 ± 0.2 | 0.6 ± 0.1 | 1.8 ± 0.4 | 7.7 ± 0.5 | 1.8 | 3.2 ± 0.3 | 8.53 ± 0.01 | 2.1 ± 0.1 | remarkable cyto-protection; also recorded: a decrease in efficacy | Fold more potent than Me5, tonic block ([1]; Me5 ref De Luca et al., 2000): ~2 fold; Fold more potent than Me5, use-dependent block ([1]; Me5 ref De Luca et al., 2000): ~9 fold; BT/BUD (IC50 TB/IC50 UDB 10-Hz) [1]: 21; Shift in the h∞ curves toward more negative potentials [3]: 6.3 ± 1.1 mV; Vh1/2 [3]: -83.7±0.1 mV; Time constants for recovery from inactivation [4]: slowest time constants |
| OO [H2O2] |  |  |  |  |  |  |  |  |  | IC50 (C2C12 cells [7]; 8 h of incubation, read-out: Cytotoxic effect IC50): 292 ± 25 µM |
| Cc1cccc(C)c1OCC(N)C(C)C (stereo not drawn) [Me5, 1-(2,6-dimethylphenoxy)-3-methyl-2-butanamine] |  |  |  |  |  | 2.72 ± 0.02 | 8.97 ± 0.03 | 1.1 ± 0.1 | moderate, albeit significant, cyto-protective effect |  |
| Cc1cccc(C)c1OCC(C)N (stereo not drawn) [Mex, 2-(2,6-dimethylphenoxy)-1-amino-propanemethylethylamine, reference compound] | 75.3 ± 8 | 23.6 ± 2.8 | 1.9 ± 0.2 | 148 ± 20 | 2 |  |  |  | moderate, albeit significant, cyto-protective effect | R (IC50 of Mex / IC50 of compound), tonic block [1]: 1; R (IC50 of Mex / IC50 of compound), use-dependent block 10-Hz [1]: 1; IC50 at 8 h [8]: 775 ± 88 µM |
| CC(C)(C)n1nc(-c2ccc(Cl)cc2)c2c(N)ncnc21 [PP2] |  |  |  |  |  |  |  |  |  | Cytotoxicity compared with Mex and its analogs (C2C12 cells [7]; 10-100 μM): more cytotoxic than Mex and its analogs |
| Cc1cccc(C)c1OC[C@@H](C)N [R-Mex, reference compound] | 74 ± 8 | 31 ± 8 |  |  |  |  |  |  |  |  |
| Cc1cccc(C)c1OC[C@H](C)N [S-Mex, reference compound] | 127 ± 2.8 | 32 ± 7 |  |  |  |  |  |  |  |  |
| Cc1cccc(C)c1OCC(C)NC(=O)C1=CC(C)(C)NC1(C)C (stereo not drawn) [VM11, N-[2-(2,6-dimethylphenoxy)-1-methylethyl]-2,2,5,5-tetramethyl-2,5-dihydro-1H-pyrrole-3-carboxamide] | 23.4 ± 0.9 | 2 ± 0.1 | 4.5 ± 0.1 | 15.5 ± 0.6 | 4.2 | 2.8 ± 0.1 | 8.5 ± 0.1 | 1.7 ± 0.1 | remarkable cyto-protection; also recorded: maintained the same cyto-protection observed between 3 and 30 μM | BT/BUD (IC50 TB/IC50 UDB 10-Hz) [1]: 11.7 and 12; R (IC50 of Mex / IC50 of compound), use-dependent block 10-Hz ([1]; relative potency toward Mex, racemic form): 12; Shift in the h∞ curves toward more negative potentials [3]: 3.6 ± 1.1 mV; Vh1/2 [3]: -82±0.3 mV; Cell protection (C2C12 cells [6]; C2C12, 300 μM H2O2, drug 100 μM): 43.5 ± 2.03% |
